In brackets after ≈: the same amount, converted by molar mass.
Experiments:
Assay type in all cases: functional
Escherichia coli = assay: Antibacterial activity against Escherichia coli by double dilution technique
Pseudomonas aeruginosa = assay: Antibacterial activity against Pseudomonas aeruginosa by double dilution technique
Staphylococcus aureus = assay: Antibacterial activity against Staphylococcus aureus by double dilution technique
Candida albicans = assay: Antifungal activity against Candida albicans by double dilution technique

In the case of `O=C(O)c1cccc(N2Cc3ccccc3C2=O)c1`, the MIC (Escherichia coli) is reported as 0.625 µg/mL (≈ 2.47 µM), the MIC (Pseudomonas aeruginosa) is reported as 0.625 µg/mL (≈ 2.47 µM) and the MIC (Staphylococcus aureus) is reported as 1.25 µg/mL (≈ 4.94 µM). For the same compound, the MIC (Candida albicans) was 0.625 µg/mL (≈ 2.47 µM).

`O=C(O)c1ccccc1N1Cc2ccccc2C1=O` gave an MIC (Escherichia coli) of 2.5 µg/mL (≈ 9.87 µM), an MIC (Pseudomonas aeruginosa) of 1.25 µg/mL (≈ 4.94 µM) and an MIC (Staphylococcus aureus) of 2.5 µg/mL (≈ 9.87 µM). It also gave an MIC (Candida albicans) of 1.25 µg/mL (≈ 4.94 µM).

For `O=C(O)c1ccc(N2Cc3ccccc3C2=O)cc1`, the MIC (Escherichia coli) was 1.25 µg/mL (≈ 4.94 µM), the MIC (Pseudomonas aeruginosa) was 0.625 µg/mL (≈ 2.47 µM) and the MIC (Staphylococcus aureus) was 1.25 µg/mL (≈ 4.94 µM). The MIC (Candida albicans) was 1.25 µg/mL (≈ 4.94 µM).
